The subject of series [1] is DLD-1. Nature of the series: cells. The conditions noted are these: Homo sapiens, DLD-1, 72 h.
Series [2] concerns SW480. Kind of series: cells. The following applies: Homo sapiens, SW480, 72 h.
In series [3] the test system is DLD-1. Nature of the series: cells. The conditions noted are these: Homo sapiens, DLD-1, 72 h. The source holds these as a separate data set.
Series [4] relates to SW-620. Kind of series: cells. The conditions noted are these: Homo sapiens, SW-620, 72 h.
In series [5] the test system is SW480. Kind of series: cells. The following applies: Homo sapiens, SW480, 72 h. The source holds these as a separate data set.
In series [6] the test system is DLD-1. Nature of the series: cells. The following applies: Homo sapiens, DLD-1, 72 h. The source holds these as a separate data set.
The subject of series [7] is SW480. Nature of the series: cells. The following applies: Homo sapiens, SW480, 72 h. The source holds these as a separate data set.
The test system of series [8] is HEK-293T. Kind of series: Effect on FOP reporter expression in LiCl-induced HEK293T cells incubated for 24 hrs by luciferase reporter gene assay. Type of series: ADME, cell-based. The following applies: human. In general terms: A reporter such as luciferase makes a cellular process visible.
Series [9] concerns SW-620. Kind of series: cells. The following applies: Homo sapiens, SW-620, 72 h. The source holds these as a separate data set.

pIC50: −log10 of the molar value.

The text below walks through data of ChEMBL document CHEMBL4339219, “Drug Design and Synthesis of First in Class PDZ1 Targeting NHERF1 Inhibitors as Anticancer Agents” (ACS Med Chem Lett, 2019).

On to `Cc1cc([N+](=O)[O-])ccc1NS(=O)(=O)c1cc(Cl)ccc1Cl`, for which the pIC50 is 4.55 in series [1] and 5.00 in series [2].
`O=C(Nc1ccccc1CO)c1c[nH]c2ccc(Cl)cc12`: the pIC50 in series [3] was 7.00; in series [4], 4.66; in series [5] it was 5.52; in series [6], 6.10; in series [7] it was 6.52.
With `CCOC(=O)c1ccc(NS(=O)(=O)c2ccc(Br)cc2)cc1`, in series [8], the Activity result is reported as “Non-Toxic”.
In the case of `O=C(Nc1ccc(CO)cc1)c1[nH]c2ccc(Cl)cc2c1Cc1ccccc1`, the pIC50 in series [3] is 7.00; in series [4], 4.74; in series [5] it was 6.05; in series [6], 6.30; in series [7] it was 7.00; in series [9] it was 6.30.

By pIC50 is commonly meant −log10 of the IC50, conventionally taken in molar units. Higher therefore signals a small IC50.
